Laboratory results from paper PMC13411385, “Methyl on the Bridge: 2‐Methyl Propellane as Precursor for 1,3‐Substituted 2‐Methylated Bicyclo[1.1.1]Pentanes” (Chemistry (Weinheim an Der Bergstrasse, Germany), 2025).

Experiments:
[1] = octanol‐water partition coefficient (logP) by 19F NMR‐based protocol; type: physicochemical; conditions: for logP: measured octanol‐water partition coefficient, 19F NMR‐based protocol; for increase in lipophilicity on addition of a methyl group: methylated compound vs its nonmethylated analogue (46a vs 46b; 47a vs 47b)
Source text: The effect of the added bridge‐methyl group on physicochemical properties was investigated.
Figure 2 Comparison of measured octanol‐water partition coefficients between phenyl, tolyl, BCP, and 2‐MeBCP.

[2] = design: method as in PMID 31894985; conditions: between 2,2‐difluorobutanol and 2,2‐difluoropentanol; cited from earlier work

| Compound | logP [1] | increase in lipophilicity on addition of a methyl group [1] | ΔlogP [2] |
| --- | --- | --- | --- |
| CCCC(F)(F)CO [2,2‐difluoropentanol] | – | – | 0.58 logP units |
| OCC(F)(F)C12CC(C1)C2 [46b, 2‐(bicyclo[1.1.1]pentan‐1‐yl)‐2,2‐difluoroethan‐1‐ol] | 1.57 | – | – |

Further lines, with some results ahead:

| logP [1] | increase in lipophilicity on addition of a methyl group [1] | Compound | ΔlogP [2] |
| --- | --- | --- | --- |
| 1.57 | – | OCC(F)(F)c1ccccc1 [47b, 2,2‐difluoro‐2‐phenylethan‐1‐ol] | – |
| 2.11 | 0.54 logP units | CC1C2CC1(C(F)(F)CO)C2 (stereo not shown) [46a, 2,2‐difluoro‐2‐(2‐methylbicyclo[1.1.1]pentan‐1‐yl)ethan‐1‐ol] | – |
| 2.03 | 0.46 logP units | Cc1ccccc1C(F)(F)CO [47a, 2,2‐difluoro‐2‐(o‐tolyl)ethan‐1‐ol] | – |
